Laboratory results reported in patent publication US20080107787A1, “Anti-Diabetic Composition with High-Potency Sweetener” (THE COCA-COLA COMPANY, priority 2006, published 2008).

Assays:
[1] = Rate of dissolution in H2O at 25° C. of rebaudioside A polymorph and amorphous forms; format: physicochemical
From the text: The purification of rebaudioside A by crystallization as described above results in the formation of at least three different polymorphs: Form 1: a rebaudioside A hydrate; Form 2: an anhydrous rebaudioside A; and Form 3: a rebaudioside A solvate. In addition to the at least three polymorph forms of rebaudioside A, the purification of rebaudioside A may result in the formation of an amorphous form of rebaudioside A, Form 4. The aqueous organic solution and temperature of the purification process influence the resulting polymorph and amorphous forms in the substantially pure rebaudioside A composition. FIGS. 1-5 are exemplary powder x-ray diffraction (XRPD) scans of the polymorph and amorphous forms of rebaudioside A: Form 1 (hydrate), Form 2 (anhydrate), Form 3A (methanol solvate), Form 3B (ethanol solvate), and Form 4 (amorphous), respectively.

[2] = format: physicochemical
Procedure: A solution of rebaudioside A (>97% pure by HPLC) was prepared in double distilled water (12.5 gm in 50 mL, 25% concentration) by stirring the mixture at 40° C. for 5 minutes. An amorphous form of rebaudioside A was formed by immediately using the clear solution for spray drying with the Lab-Plant spray drier SD-04 instrument (Lab-Plant Ltd., West Yorkshire, U.K.). The solution was fed through the feed pump into the nozzle atomizer which atomized it into a spray of droplets with the help of a constant flow of nitrogen/air. […] This dry powder (11-12 g, H2O 6.74%) was discharged continuously from the drying chamber and was collected in a bottle.

Rate of dissolution in H2O at 25° C. ([1]; graded Very low)	Rate of dissolution in H2O at 25° C. ([1]; graded Intermediate or High)	solubility in water at room temperature [2] [%]	Substance
Very low (<0.2%/60 %/60 minutes			rebaudioside A [Form 1]
	Intermediate (<30%/5 %/5 minutes		rebaudioside A [Form 2]
	High (>35%/5 %/5 minutes	> 35.0	rebaudioside A [Form 4]
	High (>30%/5 %/5 minutes		rebaudioside A [Form 3]
